2 compounds from patent US8426427B2, “Fused heterocyclic derivative, pharmaceutical composition comprising the derivative, and use of the composition for medical purposes” (Kissei Pharmaceutical Co., Ltd., priority 2007, dated 2013) can be followed below.

For one series, the target named is T1, human GnRHR1 (Homo sapiens, UniProt P30968).
T1 construct: expressed in transfected cells
T1 sequence (P30968 1-328): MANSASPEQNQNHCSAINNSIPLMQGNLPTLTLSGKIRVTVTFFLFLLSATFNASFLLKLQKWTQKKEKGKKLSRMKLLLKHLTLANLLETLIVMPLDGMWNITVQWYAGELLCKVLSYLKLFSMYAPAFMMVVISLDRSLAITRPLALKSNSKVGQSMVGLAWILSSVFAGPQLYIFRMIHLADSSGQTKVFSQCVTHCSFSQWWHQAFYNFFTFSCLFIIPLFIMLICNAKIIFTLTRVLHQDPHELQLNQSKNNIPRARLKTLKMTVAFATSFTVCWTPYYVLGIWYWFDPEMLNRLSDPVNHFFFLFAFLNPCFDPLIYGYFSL
Put plainly: Inhibitory effect for the change of calcium levels in GnRH-stimulated cells (hGnRHR1#1 HEK293 cells). Format: cell-based. The following applies: hGnRHR1#1 cells (HEK293 stably expressing human GnRHR1), 10 nM GnRH added, FLIPR calcium dye; read-out: IC50 (drug concentration at which 50% GnRH-stimulated intracellular calcium flux was inhibited). From the text: 1) Cloning and Construction of the Vector Expressing Human GnRH Receptor1 (GnRHR1)
Using cDNA derived from human pituitary (BECTON DICKINSON) as a template, the DNA fragment coding 45 to 1115 by of human GnRHR1 (Accession No. L03380), which was reported by Kakar et al., was amplified by PCR method and inserted into the multi-cloning site of pcDNA3.1(+) (Invitrogen). The DNA sequence inserted was perfectly matched to the previously reported sequence.
2) Establishment of Cell Line Stably Expressing Human GnRH Receptor1 HEK293 Cells
The expression vector of human GnRHR1 gene, was digested by XhoI into a linear DNA. The linear DNA was transfected into HEK293 cells by means of lipofection (Lipofectamine2000: Invitrogen). Neomycin resistant cell lines were selected by culture in the medium containing G418 (Invitrogen) at 1 mg/mL, and then the change of calcium levels in GnRH-stimulated cells was measured by the method described below.
3) Assay of Inhibitory Effect for the Change of Calcium Levels in GnRH-Stimulated Cells
Antagonizing effect of compounds for human GnRHR1 was evaluated by depression of calcium levels in GnRH-stimulated cells. hGnRHR1#1 cells were seeded into a 96-well culture plate at a density of 1.5×10^5 cells/well and cultured for a day. […] Then, intracellular calcium levels were determined under the following condition by using FLEX STATION (Molecular Devices). […]

The nature of series [1]: Assay for oral absorbability: plasma drug concentration after oral administration to rats. Format: in vivo, SD rats. Particulars: for C360 (plasma drug concentration at 360 minutes after administration) / Cmax: fasted male SD rats, oral 3 mg/kg, plasma; for availability by oral administration compared with Control compound 1 / sustainability of blood concentration 6 hours after oral administration compared with Control compound / Cmax: rat; for Cmax: LC-MS/MS, read-out: Cmax (maximum plasma drug concentration). The procedure:
Assay for Oral Absorbability
1) Preparation of the Samples for Measurement of the Drug Concentration after Oral Administration
As experimental animal, overnight fasted SD rats (Charles River, male, 7 weeks of age, 170-210 g) were used. Three mg of a test compound was dissolved by adding 0.2 mL of N,N-dimethylacetoamide, 9.794 mL of 0.5% aqueous methylcellulose solution and 0.006 mL of 2N NaOH, and then 0.3 mg/mL solution was prepared. The body weights of rats were measured, and the solution of the test compound was administered orally at the dose of 10 mL/kg (3 mg/kg). The oral administration was performed with gastric tube for rat and 2.5 mL syringe. The sampling times for collection of blood were 15, 30, 60, 120, 240 and 360 minutes after the oral administration. The blood was centrifuged, and the plasma was used as the sample for measurement of the drug concentration in blood.
2) Measurement of the Drug Concentration
To 0.025 mL of the plasma obtained in 1) described above, 0.1 mL of an adequate internal standard material was added according to the usual method, and then deproteinization was performed by adding 0.875 mL of acetonitrile. After centrifugation, 0.005 mL of the supernatant was injected into LC-MS/MS. The drug concentration in plasma was measured by LC-MS/MS method under the conditions as follows. To 0.05 mL of the blank plasma were added the internal standard material and various test compounds adequately according to the usual method, similar operating described above was done, and then the standard curves were prepared.
In the oral administration, the maximum plasma drug concentration (Cmax) and the plasma drug concentration at 360 minutes after administration (C360) are shown in Tables 8 and 9, respectively.

For `COCCOc1ccc(F)c(F)c1CN(C)c1ccc(F)c(-n2c(=O)[nH]c3csc(C(=O)O)c3c2=O)c1` [Example 1, 5-Carboxy-3-(2-fluoro-5-{N-[2,3-difluoro-6-(2-methoxyethoxy)benzyl]-N-methylamino}-phenyl)thieno[3,4-d]pyrimidine-2,4(1H,3H)-dione], the IC50 on human GnRHR1 turned out to be 51 nM. In series [1], the C360 (plasma drug concentration at 360 minutes after administration) came to 1010 ng/mL, the “availability by oral administration compared with Control compound 1” value is on record as “more excellent availability than the Control compound 1”, the “sustainability of blood concentration 6 hours after oral administration compared with Control compound” value is “more superior in sustainability than the Control compound” and the Cmax came to 17600 ng/mL.

As for `CN(Cc1c(F)cccc1F)c1ccc(F)c(-n2c(=O)[nH]c3csc(C(=O)O)c3c2=O)c1` [Example 2], at human GnRHR1, the IC50 worked out at 133 nM. Also, in series [1], the C360 (plasma drug concentration at 360 minutes after administration) was determined as 2170 ng/mL, the “availability by oral administration compared with Control compound 1” value is “more excellent availability than the Control compound 1”, the “sustainability of blood concentration 6 hours after oral administration compared with Control compound” value was “more superior in sustainability than the Control compound” and the Cmax was 14900 ng/mL.
